Assay results taken from patent US8158621B2, “Methods of treating or preventing autoimmune diseases with 2,4-pyrimidinediamine compounds” (Rigel Pharmaceuticals, Inc., priority 2002, dated 2012).
“And” between values parts separate entries of the source, which are not always exact repeats. Equal entries are not always repeated. Marks after values point to notes of the source that are not given here.

Assays:
CHMC cells = assay: anti-IgE-induced Ca2+ flux in CHMC cells; assay type: cell-based, human; conditions: 10 μM
[1] = test system: bone marrow derived mast cells (BMMC); assay: BMMC high cell density IgE activation: histamine; assay type: cell-based, mouse; conditions: High Density; read-out: BMMC anti-IgE histamine
Experimental: After sensitizing, cells are counted, pelleted (1000 rpm, 5-10 minutes), and resuspended at 1-3×10^6 cells/ml in MT buffer. Add 100 ul of cell suspension to each well and 100 ul of compound dilutions. The final vehicle concentration is 0.5% DMSO. Incubate at 37° C. (5% CO2) for 1 hour. After 1 hour of compound treatment, stimulate cells with 6× stimulus (60 ng/ml DNP-BSA). Mix wells with the cells and allow plates to incubate at 37° C. (5% CO2) for one hour. After 1 hour incubation, pellet cells (10 minutes, 1000 RPM) and collect 200 ul per well of the supernatant, being careful not to disturb pellet, and transfer to a clean tube or 96-well plate. Place the supernatant plate on ice. During the 4-5 hour step (see next) perform the hexosiminidase assay. Resuspend cell pellet in 240 ul WEI-conditioned media containing 0.5% DMSO and corresponding concentration of compound. Incubate BMMC cells for 4-5 hours at 37° C. (5% CO2). After incubation, pellet cells (1000 RPM, 10 minutes) and collect 225 ul per well and place in −80° C. until ready to perform ELISAS. ELISAS are performed on appropriately diluted samples (determined empirically for each donor cell population so that the sample measurement falls within the standard curve) following the supplier's instructions.

[2] = test system: basophil cells (human peripheral blood); assay: Basophil dustmite activation: histamine release assay; assay type: cell-based; conditions: basophils, dust mite activation
Experimental: The basophil activation assay was carried out using whole human peripheral blood from donors allergic to dust mites with the majority of the red blood cells removed by dextran sedimentation. Human peripheral blood was mixed 1:1 with 3% dextran T500 and RBCs were allowed to settle for 20-25min. The upper fraction was diluted with 3 volumes of D-PBS and cells were spun down for 10 min at 1500 rpm, RT. Supernatant was aspirated and cells were washed in an equal volume MT-buffer. Finally, cells were resuspended in MT-buffer containing 0.5% DMSO in the original blood volume. 80 uL cells were mixed with 20 uL compound in the presence of 0.5% DMSO, in triplicate, in a V-bottom 96-well tissue culture plate. A dose range of 8 compound concentrations was tested resulting in a 10-point dose response curve including maximum (stimulated) and minimum (unstimulated) response. […] The cells were stimulated for 30 minutes at 37° C., 5% CO2. The plate was spun for 10 min at 1500 rpm at room temperature and 80 uL the supernatant was harvested for histamine content analysis using the histamine ELISA kit supplied by Immunotech. The ELISA was performed according to supplier's instructions.

[3] = 14-day repeat-dose intranasal toxicity study in New Zealand White rabbits; assay type: in vivo; conditions: 14-day intranasal
Experimental: A 14-day repeat-dose intranasal toxicity study in New Zealand White rabbits was performed at doses of 1.7, 3.4 or 5.0 mg/kg/day. In life parameters included: clinical observations, body weights, food consumption, ophthalmology, hematology, clinical chemistry, gross necropsy, organ weights, toxicokinetic assessments and histopathology (including the nasal cavity).

[4] = in vitro chromosomal aberration assay
[5] = Pilot dose finding studies (oral); assay type: in vivo
[6] = Mouse experimental autoimmune encephalomyelitis (EAE); assay type: in vivo; conditions: for mice relapsed: from day of immunization
Experimental: In the SJL murine model of EAE, each mouse is sensitized with PLP/CFA. […] In a treatment protocol, at onset of disease, animals are separated to achieve groups with a similar mean clinical score at onset and administered vehicle or various dose frequencies of test articles via oral gavage. In both protocols, clinical scores are monitored daily, and body weights are measured twice weekly.

[7] = Oral bioavailability / pharmacokinetics in rats; conditions: rat, in vivo
Experimental: Over 50 2,4-pyrimidinediamine compounds of the invention were tested for oral bioavailability. For the study, compounds were dissolved in various vehicles (e.g. PEG 400 solution and CMC suspension) for intravenous and oral dosing in the rats. Following administration of the drug, plasma samples were obtained and extracted. The plasma concentrations of the compounds were determined by high performance liquid chromatography/tandem mass spectrometry (LC/MS/MS) methods. Pharmacokinetic analyses were performed based on the plasma concentration data. The pharmacokinetic parameters of interest include Clearance (CL), Volume of distribution at steady-state (Vss), terminal half-life (t1/2), and oral bioavailability (% F).

[8] = assay type: in vivo; conditions: rat, 32 days
[9] = Non-GLP pilot oral toxicity studies in the mouse
Experimental: Several non-GLP pilot toxicity studies have been conducted in rodents. […] In a 14-day oral toxicity study in the mouse was conducted with doses of 100, 300 and 1000 mg/kg.

[10] = Rat collagen-induced arthritis (CIA); assay type: in vivo, LOU rats; conditions: for Blinded radiographic scores (scale 0-6): Day 28
Experimental: In both protocols, clinical scores were obtained daily, and body weights are measured twice weekly. At Day 28, radiographic scores were obtained, and scrum levels of collagen II antibody were measured by ELISA.

[11] = 100 mg/kg 1x/day starting on day of immunization
[12] = 100 mg/kg 2x/day starting on day of immunization
[13] = 200 mg/kg 2x/day starting on day of onset

Oc1cccc(Nc2ncc(F)c(Nc3cccc(O)c3)n2)c1 [Compound R921218]
anti-IgE-induced Ca2+ flux (CHMC cells): inhibited
IC50 [1]: 203 nM
IC50 [2]: 302 nM
NOAEL (no observed adverse effect level) [3]: 5.0 mg/kg/day

CNC(=O)COc1cccc(Nc2ncc(F)c(Nc3ccc4c(c3)NCCO4)n2)c1 [Compound R921219]
clastogenic potential, in vitro chromosomal aberration assay [4]: not found to possess elastogenic potential
doses not tolerated ([5]; multiple (7-day) doses): ≥ 200 mg/kg/day
NOEL (no observed effect level) ([5]; single oral dose): 600 mg/kg

Nc1cccc(Nc2ncc(F)c(Nc3cccc(N)c3)n2)c1 [Compound R921302]
Incidence [6, 11]: 10/10
Mortality [6, 11]: 0/10
Onset [6, 11]: 12.3 ± 0.7
Peak (mean clinical score) [6, 11]: 4.3+1.3 and 4.3 ± 1.3
Incidence [6, 12]: 10/10
Mortality [6, 12]: 3/10^a
Onset [6, 12]: 13.0 ± 1.2^b
Peak (mean clinical score) [6, 12]: 4.3+1.4 and 4.3 ± 1.4
mice relapsed ([6]; 100 mg/kg twice daily group): None
mice relapsed ([6]; 100 mg/kg/day group): 3/8
Incidence [6, 13]: 12/12
Mean score at treatment [6, 13]: 3.4 ± 1.6
Mortality [6, 13]: 1/12
Peak [6, 13]: 4.3 ± 0.7
Relapses [6, 13]: 2/12
metabolic stability in pharmacokinetics study [7]: most metabolically stable compound
tolerability, oral doses of 50, 150 and 300 mg/kg [8]: well tolerated
NOAEL (no observed adverse effect level) ([9]; 14-day oral toxicity study): 100 mg/kg
tolerability, 100 mg/kg q.d. or b.i.d. ([9]; in vivo, po, 100 mg/kg): well tolerated
findings at 300 mg/kg ([9]; in vivo, po, 300 mg/kg): histopathological changes in the vulva
tolerability, 300 mg/kg q.d. or b.i.d. ([9]; in vivo, po, 300 mg/kg): not tolerated
tolerability, 1000 mg/kg ([9]; in vivo, po, 1000 mg/kg): not tolerated
tolerability, oral 1000 mg/kg ([9]; in vivo, po, 1000 mg/kg): tolerated
arthritis score ([10]; 300 mg/kg at disease onset, Day 16 to Day 28): significantly lower arthritis score
mean clinical scores compared with vehicle controls ([10]; 300 mg/kg/day from day of immunization, Days 10-28): significantly reduced
erosions and soft tissue swelling ([10]; 300 mg/kg/day, prophylactically or after disease onset): precluded the development of erosions and reduced soft tissue swelling
Blinded radiographic scores (scale 0-6) ([10]; once daily 150 mg/kg/day, prevention regimen): 2.4±0.006
Blinded radiographic scores (scale 0-6) ([10]; once daily 300 mg/kg/day at onset of disease): 0.45±0.031
Blinded radiographic scores (scale 0-6) ([10]; once daily 300 mg/kg/day, prevention regimen): 0.13 ±0.000001
serum anti-collagen II antibody ([10]; data not shown): marked reduction
